Measurements reported in PMC3179844 (Chemmedchem, 2011).
Marks after values point to notes of the source that are not given here.

Assays:
human 11β-HSD1 = human 11β-HSD1 (Homo sapiens, UniProt P28845); assay: Cellular 11β-HSD1 inhibition assay; conditions: for inhibition at 1 µM: HEK293, read-out: Percent inhibition measured at 1 μM
mouse 11β-HSD1 = mouse 11β-HSD1 (Mus musculus, UniProt P50172); assay: Cellular 11β-HSD1 inhibition, mouse enzyme; format: cell-based; conditions: mean of three measurements
mouse 11β-HSD1, sequence (P50172 whole entry): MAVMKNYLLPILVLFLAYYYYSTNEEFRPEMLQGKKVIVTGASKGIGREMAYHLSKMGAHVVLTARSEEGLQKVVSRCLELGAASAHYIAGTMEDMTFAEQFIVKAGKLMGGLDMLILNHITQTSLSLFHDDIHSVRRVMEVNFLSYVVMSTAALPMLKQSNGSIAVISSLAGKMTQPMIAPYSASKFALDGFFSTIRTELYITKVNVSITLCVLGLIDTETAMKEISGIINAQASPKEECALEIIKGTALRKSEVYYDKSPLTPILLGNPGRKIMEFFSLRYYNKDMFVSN

[1] = Metabolism studies in human liver microsomes; format: in vitro ADME; conditions: for half-life: human liver microsomes, 37 °C, NADPH, 40 min, mean of two measurements
[2] = ratio of IC50 values, human 11β-HSD1

human 11β-HSD1, sequence (P28845 whole entry): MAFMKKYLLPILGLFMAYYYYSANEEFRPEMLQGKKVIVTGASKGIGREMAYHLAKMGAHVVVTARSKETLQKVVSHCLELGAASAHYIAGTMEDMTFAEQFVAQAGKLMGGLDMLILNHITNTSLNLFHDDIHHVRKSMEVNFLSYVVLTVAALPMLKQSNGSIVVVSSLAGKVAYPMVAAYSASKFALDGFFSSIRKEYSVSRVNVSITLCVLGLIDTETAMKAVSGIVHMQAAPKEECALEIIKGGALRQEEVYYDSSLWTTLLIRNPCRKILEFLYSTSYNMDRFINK

| melting point [°C] | Compound | other results |
| --- | --- | --- |
| 85 to 87 | Cc1cccc(OCC(=O)C23CC4CC(CC(C4)C2)C3)n1 [Compound 6, 1-(Adamantan-1-yl)-2-[(6-methylpyridin-2-yl)oxy]ethan-1-one] | IC50 (human 11β-HSD1; IC50, human 11β-HSD1, HEK293/HSD11B1 cells): 3100 nM |
| 75 to 76 | Cc1cccc([S+]([O-])CC(=O)C23CC4CC(CC(C4)C2)C3)n1 (stereo not drawn) [Compound 17, 1-(Adamantan-1-yl)-2-(6-methylpyridine-2-sulfinyl)ethan-1-one] | IC50 (mouse 11β-HSD1): 68 nM |
| 87 to 88 | O=C(C[S+]([O-])Cc1ccccn1)C12CC3CC(CC(C3)C1)C2 (stereo not drawn) [Compound 40, 1-(Adamantan-1-yl)-2-[(pyridin-2-ylmethyl)sulfinyl]ethan-1-one] | IC50 (mouse 11β-HSD1): 248 nM |
| 38 to 39 | O=C(CSCc1ccccn1)C12CC3CC(CC(C3)C1)C2 [Compound 37, 1-(Adamantan-1-yl)-2-[(pyridin-2-ylmethyl)sulfanyl]ethan-1-one] |  |
| 143 to 144 | O=C(CS(=O)(=O)c1ccncc1)C12CC3CC(CC(C3)C1)C2 [Compound 21, 1-(Adamantan-1-yl)-2-(pyridine-4-sulfonyl)ethan-1-one] |  |
| 90 to 93 | O=C(COc1cccc(Cl)n1)C12CC3CC(CC(C3)C1)C2 [Compound 7, 1-(Adamantan-1-yl)-2-[(6-chloropyridin-2-yl)oxy]ethan-1-one] |  |
| 88 to 90 | O=C(CSCc1ccc(Cl)nc1)C12CC3CC(CC(C3)C1)C2 [Compound 49, 1-(Adamantan-1-yl)-2-{[(6-chloropyridin-3-yl)methyl]sulfanyl}ethan-1-one] | inhibition at 1 µM (human 11β-HSD1): 31% |
| 115 to 117 | ON=C(COCc1cccnc1)C12CC3CC(CC(C3)C1)C2 [Compound 36, N-[1-(Adamantan-1-yl)-2-(pyridin-3-ylmethoxy)ethylidene]hydroxylamine] | inhibition at 1 μM (in words) (human 11β-HSD1; 1 μM, HEK293/HSD11B1 cells): none of the oxime compound shows any significant inhibition |
| 115 to 117 | O=C(Cc1cccnc1)NCC(=O)C12CC3CC(CC(C3)C1)C2 [Compound 61, N-[2-(Adamantan-1-yl)-2-oxoethyl]-2-(pyridin-3-yl)acetamide] |  |
| 127 to 128 | O=C(COc1cncc(Cl)c1)C12CC3CC(CC(C3)C1)C2 [Compound 9, 1-(Adamantan-1-yl)-2-[(5-chloropyridin-3-yl)oxy]ethan-1-one] |  |
| 172 to 174 | NC(=O)c1ccc(SCC(=O)C23CC4CC(CC(C4)C2)C3)nc1 [Compound 24, 6-{[2-(Adamantan-1-yl)-2-oxoethyl]sulfanyl}pyridine-3-carboxamide] |  |
| 174 to 176 | O=C(O)c1ccc(SCC(=O)C23CC4CC(CC(C4)C2)C3)nc1 [Compound 23, 6-{[2-(Adamantan-1-yl)-2-oxoethyl]sulfanyl}pyridine-3-carboxylic acid] |  |
| 114 to 115 | O=C(NCC(=O)C12CC3CC(CC(C3)C1)C2)c1cccnc1 [Compound 58, N-[2-(Adamantan-1-yl)-2-oxoethyl]pyridine-3-carboxamide] |  |
| 136 to 137 | CCNC(=O)c1ccc(SCC(=O)C23CC4CC(CC(C4)C2)C3)nc1 [Compound 26, 6-{[2-(Adamantan-1-yl)-2-oxoethyl]sulfanyl}-N-ethylpyridine-3-carboxamide] |  |
| 86 to 87 | Cc1ccc(OCC(=O)C23CC4CC(CC(C4)C2)C3)cn1 [Compound 11, 1-(Adamantan-1-yl)-2-[(6-methylpyridin-3-yl)oxy]ethan-1-one] | fold improvement in activity compared with the 2-pyridyl analogue 6 (human 11β-HSD1; [2]): 38 fold |
| 147 to 149 | O=C(NCC(=O)C12CC3CC(CC(C3)C1)C2)c1ccncc1 [Compound 59, N-[2-(Adamantan-1-yl)-2-oxoethyl]pyridine-4-carboxamide] |  |
| 102 to 104 | O=C(COc1ccc(C(F)(F)F)cn1)C12CC3CC(CC(C3)C1)C2 [Compound 8, 1-(Adamantan-1-yl)-2-{[5-(trifluoromethyl)pyridin-2-yl]oxy}ethan-1-one] |  |

Continued, compound first:

| Compound | melting point [°C] | other results |
| --- | --- | --- |
| Cc1cccc(SCC(=O)C23CC4CC(CC(C4)C2)C3)n1 [Compound 14, 1-(Adamantan-1-yl)-2-[(6-methylpyridin-2-yl)sulfanyl]ethan-1-one] | 116 to 117 | inhibition at 1 µM (human 11β-HSD1): 70% |
| O=C(COc1cccnc1)C12CC3CC(CC(C3)C1)C2 [Compound 12, 1-(Adamantan-1-yl)-2-(pyridin-3-yloxy)ethan-1-one] | 73 to 75 | IC50 (mouse 11β-HSD1): 160 nM |
| ON=C(COCc1ccccn1)C12CC3CC(CC(C3)C1)C2 [Compound 35, N-[1-(Adamantan-1-yl)-2-(pyridin-2-ylmethoxy)ethylidene]hydroxylamine] |  | inhibition at 1 μM (in words) (human 11β-HSD1; 1 μM, HEK293/HSD11B1 cells): none of the oxime compound shows any significant inhibition |
| O=C(CSCc1ccc(C(F)(F)F)nc1)C12CC3CC(CC(C3)C1)C2 [Compound 48, 1-(Adamantan-1-yl)-2-({[6-(trifluoromethyl)pyridin-3-yl]methyl}sulfanyl)ethan-1-one] | 80 to 82 | inhibition at 1 µM (human 11β-HSD1): 20% |
| CN(C)C(=O)c1ccc(SCC(=O)C23CC4CC(CC(C4)C2)C3)nc1 [Compound 27, 6-{[2-(Adamantan-1-yl)-2-oxoethyl]sulfanyl}-N,N-dimethylpyridine-3-carboxamide] | 63 to 65 |  |
| O=C(NCC(=O)C12CC3CC(CC(C3)C1)C2)c1ccccn1 [Compound 56, N-[2-(Adamantan-1-yl)-2-oxoethyl]pyridine-2-carboxamide] | 135 to 136 |  |
| O=C(CS(=O)(=O)c1ccccn1)C12CC3CC(CC(C3)C1)C2 [Compound 19, 1-(Adamantan-1-yl)-2-(pyridine-2-sulfonyl)ethan-1-one] | 129 to 131 |  |
| O=C(CSc1ccc(C(F)(F)F)cn1)C12CC3CC(CC(C3)C1)C2 [Compound 22, 1-(Adamantan-1-yl)-2-{[5-(trifluoromethyl)pyridin-2-yl]sulfanyl}ethan-1-one] | 141 to 142 | fold reduction in activity compared with the unsubstituted derivative 13 (human 11β-HSD1; [2]): 51 fold |
| Cc1cccc(C(=O)NCC(=O)C23CC4CC(CC(C4)C2)C3)n1 [Compound 57, N-[2-(Adamantan-1-yl)-2-oxoethyl]-6-methylpyridine-2-carboxamide] | 110 to 111 |  |
| O=C(CSCc1cccnc1)C12CC3CC(CC(C3)C1)C2 [Compound 38, 1-(Adamantan-1-yl)-2-[(pyridin-3-ylmethyl)sulfanyl]ethan-1-one] | 45 to 47 |  |
| O=C(COc1cccnc1Cl)C12CC3CC(CC(C3)C1)C2 [Compound 10, 1-(Adamantan-1-yl)-2-[(2-chloropyridin-3-yl)oxy]ethan-1-one] | 125 to 128 |  |
| O=C(COCc1ccc(C(F)(F)F)nc1)C12CC3CC(CC(C3)C1)C2 [Compound 34, 1-(Adamantan-1-yl)-2-{[6-(trifluoromethyl)pyridin-3-yl]methoxy}ethan-1-one] | 106 to 109 | inhibition at 1 µM (human 11β-HSD1): 33% |
| O=C(Cc1ccccn1)NCC(=O)C12CC3CC(CC(C3)C1)C2 [Compound 60, N-[2-(Adamantan-1-yl)-2-oxoethyl]-2-(pyridin-2-yl)acetamide] | 137 to 139 |  |
| O=C(C[S+]([O-])c1ccccn1)C12CC3CC(CC(C3)C1)C2 (stereo not drawn) [Compound 16, 1-(Adamantan-1-yl)-2-(pyridine-2-sulfinyl)ethan-1-one] | 66 to 68 | IC50 (mouse 11β-HSD1): 43 nM; half-life [1]: 20 min; microsomal CLint ([1]; human, liver microsomes): 31 µL/min/mg; half-life ([1]; human, liver microsomes, Half-life): 20 to 30 min |
| 6-{[2-(Adamantan-1-yl)-2-oxoethyl]sulfanyl}-N-methylpyridine-3-carboxamide [Compound 25] |  | Percent inhibition measured at 1 μM (human 11β-HSD1; 1 μM, HEK293/HSD11B1 cells, mean of two measurements): 73 % ^[b] |
| O=C(CS(=O)(=O)Cc1ccc(C(F)(F)F)nc1)C12CC3CC(CC(C3)C1)C2 [Compound 52, 1-(Adamantan-1-yl)-2-({[6-(trifluoromethyl)pyridin-3-yl]methyl}sulfonyl)ethan-1-one] | 87 to 89 | inhibition at 1 µM (human 11β-HSD1): 54% |
| O=C(CSc1ccncc1)C12CC3CC(CC(C3)C1)C2 [Compound 15, 1-(Adamantan-1-yl)-2-(pyridin-4-ylsulfanyl)ethan-1-one] | 114 to 115 |  |
| Cc1cccc(S(=O)(=O)CC(=O)C23CC4CC(CC(C4)C2)C3)n1 [Compound 20, 1-(Adamantan-1-yl)-2-(6-methylpyridine-2-sulfonyl)ethan-1-one] | 151 to 152 |  |
